The target in one data set is T1, β1-INTEGRIN (ITGB1) (Homo sapiens, UniProt P05556).
T1 construct: endogenous in cells; host or cells: hNPCs differentiated from human embryonic stem cells HUES 64
Nature of the data set: ITGB1 activation and intracellular signaling in hNPCs treated with IKVAV PAs (confocal microscopy, WB). The class given is cell-based. An excerpt:
(§1) Neural progenitor cells (NPCs) were differentiated from human embryonic stem cells HUES 64 (Harvard University) (see FIG. 2C). In short, 70% confluent stem cell cultures grown in Matrigel (Thermo Fisher) coated plates with mTESR medium (STEMCELL Technologies), were switched to N2B27 medium (50% DMEM: F12, 50% Neurobasal, supplemented with NEAA, Glutamax, N2 and B27; Gibco) containing dual SMAD inhibitors (SB431542, DNSK International and LDN-193189, Tocris) for 12 days to induce the generation of neural progenitors. Neuralization was enhanced by supplementing medium with laminin from day 5 to 12. Next, neural rosettes were dissociated with neural rosette selection reagent (STEMCELL Technologies) to obtain NPCs, which are expanded in N2B27 (Gibco) medium supplemented with bFGF (Millipore). For experimentation in the different PA platforms, NPCs were dissociated with Accutase (Innovative Cell technology), and cultured in the distinct platforms with DMEM: F12+N2+B27 medium with hyclone penicillin-streptomycin (GE Healthcare) and ascorbic acid (0.2 μg/mL; Sigma-Aldrich).
(§2) For IKVAV PA treatments, hNPCs were cultured on ornithine coatings (German Glass, Chemglass Life Science) in 6 well and 24 well plates at a density of 500,000 cells/well and 80,000 cells/well respectively. hNPCs were treated with […] of IKVAV PAs ([PA]=6 mM, [KCl]=3 mM, [NaCl]=150 mM) or recombinant laminin protein (10 mg/mL) in solution. IKVAV PA2 and IKVAV PA5 were also mixed with 5 mM CaCl2) at a ratio PA:CaCl2) 6:1 to treat hNPCs. For 2D experiments, hNPCs were cultured on the different IKVAV PAs or laminin coatings in 6 well and 24 well plates at densities mentioned above. For co-assembled experiments, hNPCs were cultured on the different co-assembled PA coatings in 6 well and 24 well plates at a density of 400,000 cells/well and 50,000 cells/well respectively.
(§3) hNPCs were fed 4 times a week with DMEM: F12+N2^+B27 medium with hyclone penicillin-streptomycin and ascorbic acid. After 24 h, 72 h 1- or 2-weeks in vitro, cell lysates were harvested or fixed for WB or ICC, respectively. Three replicates per condition and at least three independent experiments were carried out for all conditions investigated.
(§4) For immunofluorescence, fixed primary cultures or free-floating tissue sections (40 m Thick) were incubated in blocking buffer containing 0.02% Triton-X (Sigma-Aldrich), 1% NHS (Gibco) and PBS 1× (Gibco). Samples were incubated with primary antibodies over night at 4° C. Alexa-488, Alexa-555 and/or Alexa-647 (1:500, Thermofisher) were used as secondary antibodies. DAPI (1:500, Thermofisher) was used to stain nuclei. Finally, the samples were mounted on coverslips with Immu-Mount (Fisher Scientific) solution for imaging.
RIPA buffer (Thermofisher) with a cocktail of Halt Protease and Phosphatase Inhibitors (Thermofisher) was used to extract protein from in vitro and in vivo samples. For in vivo studies, spinal cord tissue was then sonicated using a horn sonicator (Branson) to break up the tissue. A Pierce™ BCA Protein Assay Kit (Thermofisher) was used to determine protein content for all samples used. Protein extracts obtained from cell cultures or tissue were separated using an SDS-polyacrylamide gel and electro-transferred to a nitrocellulose membrane (Bio-Rad). Membranes were blocked for 30 minutes to 1 hour using a 5% milk solution (Bio-Rad) and incubated over night with primary antibodies. Corresponding secondary HRP-conjugated antibodies (1:1000, ThermoFisher) were used for 1 h at room temperature. Radiance Bioluminescent ECL substrate (Azure Biosystems) was used to detect protein signal. The membranes were imaged using the Azure Biosystems imager and densitometry analysis were performed using ImageJ software.

Data set [1] has as its system hNPCs. Nature of the data set: Neuronal differentiation of hNPCs treated with IKVAV PAs (TUJ-1+ cells). It counts as cell-based, human.
Source text: as §1, §2, §3, §4
For in vitro cell quantification, image files were imported into NIH Image J (1.51) software and the “analyze particles” and “cell counter” functions were used to measure the total number of cells in a determined area. Serial tissue sections were stained with NeuN and ChAT using free-floating immunostaining were quantified using Nikon Elements software. The rostral and caudal borders of the lesions were chosen as the first cross-sections that had NeuN staining in all four gray matter horns. 8 sections within the lesion were chosen per animal and expressed as number of neurons per section. Automated multichannel image acquisition, image stitching, and z-stack reconstruction ([…]) were carried out on a Nikon GasP R1 confocal microscope to image the entire selected cross-section for NeuN and Chat markers for all conditions.

A short description of data set [2]: T2-NMR spin-spin relaxation rate of PA assemblies. The class given is physicochemical. Conditions: T2 relaxation of K residue of IKVAV PAs, no Ca2+. The protocol:
NMR spectra were acquired at 600 MHz on a Tecmag NMR spectrometer using a Doty diffusion probe with a sweep width of 6 kHz and 16k data points or at 600 MHz on a Brucker Neo system with QCI-F cryoprobe.
NMR spectra for IKVAV PAs were recorded at 25° C. using TFA-d, H2O/D2O in 9/1 ratio (D2O contains 0.05 wt. % 3-(trimethylsilyl) propionic-2,2,3,3-d4 acid, sodium salt) as solvents. Chemical shifts are reported in part per million (ppm). Structural assignment was performed using ^1H,^1H-gCOSY, ^1H,^13C-gHSCQAD, TOCSY and NOESY. Multiplicities are quoted as singlet (s), doublet (d), multiplets (m), doublet of doublets (dd), doublet of doublet of doublets (ddd), triplet (t), quartet (q). The […] and typical spectra required 32 scans. Additional scans (512) were required for accurate estimation of the aromatic signal intensity since the epitope containing aromatic protons was present at only 10 mol %.
The spin-spin relaxation rates were measured using the Carr-Purcell-Gill-Meiboom pulse sequence with a delay time of 0.2 ms in a variable loop. The peak intensity data was fit to and exponential in the form:
where τ is the length of the delay time, R2 is the spin-spin relaxation rate and b are the baseline.

For data set [3], the system named is murine model of severe spinal cord injury (SCI). Nature of the data set: Corticospinal tract (CST) axon regrowth after SCI (BDA tracing). The class given is in vivo, mouse. To be noted: 12 weeks after injury, BDA-labeled axons. The protocol: (§5) All experiments were conducted at the Simpson Querrey Institute at Northwestern University. 182 CD1 mice (Charles River) were subjects of this study (N=38 Sham, N=38 IKVAV PA2 alone, N=38 IKVAV PA2+FGF2 PA1, N=38 IKVAV PA2+FGF2 PA2, N=12 IKVAV PA1, N=12 Backbone PA, N=6 IKVAV PA4). The age of animals used in the study was in the range of 10-16 weeks. 8 independent in vivo experiments were carried out (injury+PA injection) and each of the 8 experiments had animals of the exact same age which were injected with at least the 4 main treatment groups: Sham, IKVAV PA2 alone, IKVAV PA2+FGF2 PA1, and IKVAV PA2+FGF2 PA2. Animals were anesthetized using 2.5% isoflurane gas with oxygen. A laminectomy was performed to expose the spinal cord at the T10-T11 spinal level. A severe contusive injury was performed using the Infinite Horizon Spinal Cord Impactor system (IH-0400 Precision Systems and Instrumentation) with 85 kdyn of impact force and a dwell time of 60 s. After the lesion, the skin was sutured using 9 mm wound clips (BD Biosciences) and the animals were recovered on a heating pad to maintain body temperature. Bladders were manually expressed daily during the entire 12 weeks of the experiment.
PAs (dissolved in sterile NaCl 0.9% solution at 1 wt %) were injected 24 h after SCI using a glass capillary micropipette (Sutter Instruments, Novato, CA) (outer diameter, 100 m) coated with Sigmacote (Sigma-Aldrich) to reduce surface tension as described elsewhere (19). The capillaries were loaded onto a Hamilton syringe using a female Luer adaptor (World Precision Instruments) controlled by a Micro4 microsyringe pump controller (World Precision Instruments). Under isoflurane anesthesia, autoclips were removed and the injury site was exposed. At 24 h post injury, the laminectomy in the spinal column was still intact and the bruise created by the lesion was visible. A stereotaxic Kopf apparatus was used to position the micropipette just dorsal to the lesion. The micropipette was lowered to a depth of 750 m measured from the dorsal surface of the cord, and 4-6 μL of the diluted amphiphile solution was injected at 1 L/min. […]
Axons labeled using BDA (Thermofisher, N7167) or stained with 5HT (Abcam) were quantified using Imaris® software version 9.3 as previously described (21). Lines were drawn across longitudinal spinal cord sections from the proximal border (PB) to the distal border (DB) of the SCI lesion at consistent distances and the number of axons intercepting the lines drawn was counted by researchers that were blinded to the experimental conditions. Multiple sections through the middle of the cord, where BDA or 5HT staining was denser, were counted per mouse and expressed as total intercepts per location, per animal. […]

Data set [4] has the same test system. Nature of the data set: Glial scar, GAP-43, MBP, laminin and fibronectin in the SCI lesion (immunofluorescence, WB). Conditions: mouse, in vivo. On the procedure:
as §5, with “After the lesion, the skin was sutured using 9 mm wound clips (BD Biosciences) and the animals were recovered on a heating pad to maintain body temperature. Bladders were manually expressed daily during the entire 12 weeks of the experiment.” left out
PAs (dissolved in sterile NaCl 0.9% solution at 1 wt %) were injected 24 h after SCI using a glass capillary micropipette (Sutter Instruments, Novato, CA) (outer diameter, 100 m) coated with Sigmacote (Sigma-Aldrich) to reduce surface tension as described elsewhere (19). […] The micropipette was lowered to a depth of 750 m measured from the dorsal surface of the cord, and 4-6 μL of the diluted amphiphile solution was injected at 1 L/min. […]

In data set [5] the test system is hNPCs. Nature of the data set: hNPC attachment, proliferation and phenotype on co-assembled PA coatings (EdU, SOX-2, PAX6). The class given is cell-based, human.
Source text: as §1, §2, §3
For the hNPCs proliferation assay, 2 μM of the thymidine analog 5-ethynyl-2′-deoxyuridine (EdU, Thermo Fisher) was incorporated into the culture medium for 24 h. Cells were fixed at the indicated time points in 4% paraformaldehyde (PFA) for 15 min at RT. After fixation, samples were washed in PBS twice and then stained with Click-iT™ EdU Cell Proliferation Kit containing 11 mM CuSO4 (from 50 mM stock) and 1 μg/mL of Alexa Fluor-555 azide (from 0.5 mg/mL, Thermo Fisher) for 30 minutes at RT in the dark. The staining cocktail was then removed, and cells were washed with PBS. Then, hNPCs were counterstained with anti-rabbit SOX-2 antibody following the immunofluorescence protocol described below and 4′, 6-diamidino-2-phenylindole (DAPI, Thermo Fisher) at 5 μg/mL in PBS for 20 min at RT. The cells were then washed with PBS and mounted with Immu-Mount (Fisher Scientific) for imaging.
For immunofluorescence, fixed primary cultures or free-floating tissue sections (40 m Thick) were incubated in blocking buffer containing 0.02% Triton-X (Sigma-Aldrich), 1% NHS (Gibco) and PBS 1× (Gibco). Samples were incubated with primary antibodies over night at 4° C. Alexa-488, Alexa-555 and/or Alexa-647 (1:500, Thermofisher) were used as secondary antibodies. DAPI (1:500, Thermofisher) was used to stain nuclei. […]

T1 sequence (P05556 21-798): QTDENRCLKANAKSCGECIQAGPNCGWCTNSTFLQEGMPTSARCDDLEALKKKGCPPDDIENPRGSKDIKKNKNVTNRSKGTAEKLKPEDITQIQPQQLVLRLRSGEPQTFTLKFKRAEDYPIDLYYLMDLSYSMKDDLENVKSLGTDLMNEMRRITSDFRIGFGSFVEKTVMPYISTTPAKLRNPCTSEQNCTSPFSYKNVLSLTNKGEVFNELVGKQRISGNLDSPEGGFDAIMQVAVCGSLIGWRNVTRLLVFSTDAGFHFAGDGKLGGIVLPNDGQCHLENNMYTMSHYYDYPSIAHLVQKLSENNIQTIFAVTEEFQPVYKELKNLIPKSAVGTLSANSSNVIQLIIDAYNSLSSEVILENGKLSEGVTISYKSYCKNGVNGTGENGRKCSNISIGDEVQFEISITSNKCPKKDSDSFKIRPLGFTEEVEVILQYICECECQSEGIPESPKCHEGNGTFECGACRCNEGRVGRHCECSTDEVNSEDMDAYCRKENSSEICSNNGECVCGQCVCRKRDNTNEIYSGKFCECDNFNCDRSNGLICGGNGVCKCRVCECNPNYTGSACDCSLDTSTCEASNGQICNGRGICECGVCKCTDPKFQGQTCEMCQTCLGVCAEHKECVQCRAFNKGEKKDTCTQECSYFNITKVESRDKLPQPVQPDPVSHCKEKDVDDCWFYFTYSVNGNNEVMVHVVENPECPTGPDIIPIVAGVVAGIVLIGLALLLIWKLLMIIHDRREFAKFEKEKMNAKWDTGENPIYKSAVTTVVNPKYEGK

For the substance C16-A4E4GIKVAV [IKVAV PA8], the “in vitro bioactivity (summary)” value at β1-INTEGRIN (ITGB1) was “low level of in vitro bioactivity”. Besides, the “percentage of induction of TUJ-1+ neuronal cells” value in the data set on hNPCs [1] came to 7.5±0.5%. In addition, the R2 in data set [2] was 4.5 ± 0.2 s⁻¹.

As to C16-AVA2E4GIKVAV [IKVAV PA7], the “in vitro bioactivity (summary)” value on β1-INTEGRIN (ITGB1) was “low level of in vitro bioactivity”. For the same substance, the “percentage of induction of TUJ-1+ neuronal cells” value in the data set with hNPCs [1] is 7.4±0.6%. In data set [2], this substance gave an R2 of 6.0 ± 0.03 s⁻¹.

In the case of C16-AVG2E4GIKVAV [IKVAV PA3], the “in vitro bioactivity (summary)” value on β1-INTEGRIN (ITGB1) is on record as “low level of in vitro bioactivity”. Further, in the data set on hNPCs [1], the “percentage of induction of TUJ-1+ neuronal cells” value is 7.5±0.6%. The substance further displayed an R2 in data set [2] of 4.5 ± 0.7 s⁻¹.

For the substance C16-V2A2E2 (VVAAEE) [Backbone PA], the “CST axon regrowth within the lesion” value in data set [3] is “hardly observed”. In addition, the “glial scar (reactive astrocytes, GFAP) at the borders of the injury” value in data set [4] is listed as “dense population of reactive astrocytes expressing high levels of GFAP”.

Turning to C16-VA3E4GIKVAV [IKVAV PA6], the “in vitro bioactivity (summary)” value on β1-INTEGRIN (ITGB1) is listed as “low level of in vitro bioactivity”. Also, in the data set with hNPCs [1], the “percentage of induction of TUJ-1+ neuronal cells” value is on record as 7.9±1.3%. This substance had an R2 in data set [2] of 6.1 ± 0.8 s⁻¹.

With laminin, the “percentage of proliferating EdU+ and SOX2+ cells” value in the data set with hNPCs [5] is on record as “decreased significantly”. Further, the “percentage of neuronal progenitor cells PAX6+” value in the data set with hNPCs [5] (one week later) is listed as “increased percentage”.
